From patent US6110897A, “Antiinflammatory cell adhesion inhibitors” (Glycorex AB, priority 1997, dated 2000)
pIC50: −log10 of the molar value. Read-outs that look alike come from different tables or passages of the source.

How the values were obtained:
[1] = test system: E-selectin-IgG fusion protein; test: Inhibition of HL60 cell adhesion to recombinant E-selectin-IgG fusion protein; assay type: cell-based, human
Method: (§1) These recombinant proteins contain the signal sequence, the lectin-like domain, the EGF (epidermal growth factor) repeat domain and six (E-selectin) and two (P-selectin) of the CR-like (complement regulatory) domains. […] Adhesion of labelled HL60 tumor cells was quantitatively measured in a cytofluoro-meter. The specific cell binding in the presence of inhibitors (I) was calculated compared with nonspecific binding to the CD4-IgG fusion protein. […] Genetic constructs for expression of extracellular portions of the human selectins E and P, joined to human immunoglobulin heavy chain hinge, CH2 and CH3 regions were obtained from B. Seed, Massachusetts General Hospital, Boston, U.S.A. […] CD4-IgG served as a negative control. Recombinant proteins were expressed as soluble proteins after DEAE/dextran facilitated plasmid DNA trans-fection into COS cells according to standard procedures. […] After washing with PBS, plates were blocked for 0.5 h with 150 μl/well of 1% BSA in PBS. […] After one PBS wash, 40 μl/well binding buffer (50 mM Hepes, pH 7.5, 100 mM NaCl, 100 μM MgCl2. 100 μM MnCl2, 100 μM CaCl2, 1 mg/ml BSA) were added together with test compounds or antibodies (see below). Parallel to the preparation of the plates, HL60 cells, grown in DMEM medium with 20% FCS, were washed two times with PBS before incubation for 20 min in Fc-receptor blocking buffer at RT. […] The amount of bound cells was quantitated in a cytofluorometer (CytoFluor 2300, Millipore, Bedford, U.S.A.). Specific cell binding was calculated by subtraction of the signals in wells coated with CD4-IgG (nonspecific binding) from the signals in wells coated with selectin-IgG. […] IC50 values were determined according to the four parameter logistics model. Each IC50 determination was repeated on another day at least once.

[2] = target: T1, P-selectin-IgG fusion protein (Homo sapiens, UniProt P16109); test: Inhibition of HL60 cell adhesion to recombinant P-selectin-IgG fusion protein; assay type: cell-based; conditions: for pIC50: concentration to block adhesion of 50% of HL60 cells compared with negative control
T1 construct: the lectin-like domain, the EGF repeat domain and six (E-selectin) and two (P-selectin) of the complement regulatory-like domains; made in house; host or cells: COS cells (DEAE/dextran plasmid transfection; culture supernatant; genetic constructs from B. Seed, Massachusetts General Hospital)
T1 sequence (P16109 with tags, fused parts or gaps limits assumed): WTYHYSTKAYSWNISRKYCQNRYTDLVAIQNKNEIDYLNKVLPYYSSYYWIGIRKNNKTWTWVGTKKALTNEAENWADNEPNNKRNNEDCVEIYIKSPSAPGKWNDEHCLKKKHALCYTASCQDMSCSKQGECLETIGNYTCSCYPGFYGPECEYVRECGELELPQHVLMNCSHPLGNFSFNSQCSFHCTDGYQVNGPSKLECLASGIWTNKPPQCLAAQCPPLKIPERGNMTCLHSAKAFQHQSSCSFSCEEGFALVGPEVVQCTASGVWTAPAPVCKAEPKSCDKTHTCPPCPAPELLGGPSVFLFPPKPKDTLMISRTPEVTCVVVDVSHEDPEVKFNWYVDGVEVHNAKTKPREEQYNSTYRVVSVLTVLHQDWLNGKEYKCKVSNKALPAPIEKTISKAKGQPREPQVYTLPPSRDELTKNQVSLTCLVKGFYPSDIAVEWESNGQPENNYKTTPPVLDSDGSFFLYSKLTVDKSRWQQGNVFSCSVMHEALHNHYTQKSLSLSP
Method: as §1

E-selectin-Ig = conditions: cited from earlier work
E- and P-selectins = test: Selectin cell adhesion assays, E- and P-selectin taken together (statements in words); assay type: cell-based, human; conditions: removal of the acetamido or acetyl group, compared with II-1
From the text: Primary assays for investigation of the action of compounds (I) on cell adhesion to recombinant soluble selectin fusion proteins:
The preparation of soluble E- and P-selectin-IgG fusion proteins, composed of the extracellular portions of human selectins E and P and the human immunoglobulin (IgG) heavy chain hinge, CH2 and CH3 regions, has been described in Cell 1991, 67, 35. These recombinant proteins contain the signal sequence, the lectin-like domain, the EGF (epidermal growth factor) repeat domain and six (E-selectin) and two (P-selectin) of the CR-like (complement regulatory) domains. […] Adhesion of labelled HL60 tumor cells was quantitatively measured in a cytofluoro-meter. The specific cell binding in the presence of inhibitors (I) was calculated compared with nonspecific binding to the CD4-IgG fusion protein.
The activity of compounds (I), (II) and (III) was measured in adhesion assays as the inhibition of the binding of promyelocytic leukemia HL60 cells (ATCC CRL 1964) to recombinant solid phase bound selectin-fusion proteins. […] Recombinant proteins were expressed as soluble proteins after DEAE/dextran facilitated plasmid DNA trans-fection into COS cells according to standard procedures. […] The amount of bound cells was quantitated in a cytofluorometer (CytoFluor 2300, Millipore, Bedford, U.S.A.). […]

[3] = concentration to block adhesion of 50% of HL60 cells compared with negative control; read-out: E-selectin IC50

Compound | pIC50 [1, 3] | pIC50 [2] | enhanced inhibitory potency compared to sLe^X (fold) (E-selectin-Ig; cell-free ELISA, E-selectin-Ig competitive binding) | pIC50 (E-selectin-Ig; cell-free system, read-out: IC50, E-selectin-Ig competitive binding) | inhibitory potency relative to II-1 (E- and P-selectins) | improvement of the E-selectin IC50 over II-1 ([1]; I-1 over reference compound II-1) | pIC50 ([1]; read-out: E-selectin IC50; concentration to block adhesion of 50% of HL60 cells compared with negative control) | enhancement of binding affinity to P-selectin (factor) ([2]; fully deacetylated I-1 compared with II-1)
CC(=O)NC1C(O)CC(OC2C(O)C(CO)OC(OC3C(CO)OC(OCCCCCCN)C(NC(C)=O)C3OC3OC(C)C(O)C(O)C3O)C2O)(C(=O)O)OC1C(O)C(O)CO (centres unmarked) [II-1] | 3.00 | 2.70 | – | – | – | – | – | –
CC(=O)NC1C(O)CC(OC2C(O)C(CO)OC(OC3C(CO)OC(O)C(N)C3OC3OC(C)C(O)C(O)C3O)C2O)(C(=O)O)OC1C(O)C(O)CO (centres unmarked) [sLe^X (GlcNH2)] | – | – | 5 fold | 4.11 | – | – | – | –
CC(=O)NC1C(OCCCCCCN)OC(CO)C(OC2OC(CO)C(O)C(OC3(C(=O)O)CC(O)C(N)C(C(O)C(O)CO)O3)C2O)C1OC1OC(C)C(O)C(O)C1O (centres unmarked) [III-2] | 3.05 | 3.00 | – | – | only slightly improved | – | – | –
CC(=O)NC1C(OCCCCCCN)OC(CO)C(OC2OC(CO)C(O)C(OC3(C(=O)O)CC(O)CC(C(O)C(O)CO)O3)C2O)C1OC1OC(C)C(O)C(O)C1O (centres unmarked) [III-1] | 3.15 | 3.15 | – | – | only slightly improved | – | – | –
CC1OC(OC2C(N)C(OCCCCCCN)OC(CO)C2OC2OC(CO)C(O)C(OC3(C(=O)O)CC(O)C(N)C(C(O)C(O)CO)O3)C2O)C(O)C(O)C1O [Compound I-1, 2-Amino-4-O-[3-O-[5-amino-3,5-dideoxy-D-glycero-α-D-galactononulopyranosyl]-β-D-galactopyranosyl]-1-[6-aminohexyl]-2-deoxy-3-O-[α-L-fucopyranosyl]-β-D-glycopyranose] | – | 3.80 | – | – | – | significant improvement | 3.57 | 12.5
